Holding throughout (format): biochemical
For one test, the target named is T1, FLT3-ITD (Homo sapiens, UniProt P36888).
T1 sequence (P36888 1-993): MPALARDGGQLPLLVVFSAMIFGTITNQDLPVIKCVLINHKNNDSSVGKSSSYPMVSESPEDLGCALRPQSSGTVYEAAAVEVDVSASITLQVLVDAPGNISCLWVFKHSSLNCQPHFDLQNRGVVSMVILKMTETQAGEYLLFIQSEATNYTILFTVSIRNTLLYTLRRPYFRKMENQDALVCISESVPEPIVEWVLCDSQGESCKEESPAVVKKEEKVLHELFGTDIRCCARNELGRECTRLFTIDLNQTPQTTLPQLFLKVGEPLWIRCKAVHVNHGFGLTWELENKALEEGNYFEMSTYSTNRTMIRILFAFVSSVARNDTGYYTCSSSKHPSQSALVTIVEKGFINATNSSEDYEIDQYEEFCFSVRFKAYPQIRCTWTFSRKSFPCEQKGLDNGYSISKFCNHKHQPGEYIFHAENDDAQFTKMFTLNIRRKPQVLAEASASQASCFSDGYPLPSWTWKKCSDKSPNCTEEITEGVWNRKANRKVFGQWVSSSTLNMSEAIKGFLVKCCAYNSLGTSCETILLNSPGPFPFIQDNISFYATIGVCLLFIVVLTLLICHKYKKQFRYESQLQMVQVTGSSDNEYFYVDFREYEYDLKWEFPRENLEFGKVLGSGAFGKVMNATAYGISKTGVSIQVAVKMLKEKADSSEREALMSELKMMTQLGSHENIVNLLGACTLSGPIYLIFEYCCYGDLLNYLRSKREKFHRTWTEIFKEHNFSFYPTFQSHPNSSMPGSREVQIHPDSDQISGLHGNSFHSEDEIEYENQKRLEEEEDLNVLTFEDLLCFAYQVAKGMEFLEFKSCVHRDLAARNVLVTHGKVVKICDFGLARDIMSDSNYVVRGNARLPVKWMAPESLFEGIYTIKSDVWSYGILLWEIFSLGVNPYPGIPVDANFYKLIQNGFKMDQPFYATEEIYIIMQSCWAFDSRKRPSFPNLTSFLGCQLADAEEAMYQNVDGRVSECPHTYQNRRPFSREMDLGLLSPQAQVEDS
Nature of the test: FLT3-ITD Enzymatic Assay. The following applies: enzyme inhibition; peptide 2 3 μM, ATP 97.2 μM. As for the experimental part:
The compound was dissolved in 100% DMSO at the concentration of 10 mM. The FLT3-ITD protein was purchased from Invitrogen (PV6191). 10 μL per well of 2.5× FLT3-ITD protein was added to assay plate containing the test compound, centrifuged at 1000 rpm for 1 minute, and then incubated at 25° C. for 10 minutes. Peptide 2 was purchased from GL Biochem (112394) and ATP was purchased from Promega (V9102). The two were added 15 μL per well mixture of 1.67× peptide 2 (final conc. is 3 μM) and ATP (final conc. is 97.2 μM), centrifuged at 1000 rpm for 1 minute, then incubated at 25° C. for 40 minutes. Then added 30 μL of stop buffer (100 mM HEPES pH7.5, 0.015% Brij-35, 0.2% Coating Reagent 3, 50 mM EDTA) to the assay plate and centrifuged at 1000 rpm for 1 minute. the product was determined. Based on the results, the IC50 value of the compound was calculated.

Another test has as its target T2, HPK1 (Homo sapiens, UniProt Q92918).
T2 construct: purchased Signal Chem M23-11G-10
T2 sequence (Q92918 1-346 limits assumed): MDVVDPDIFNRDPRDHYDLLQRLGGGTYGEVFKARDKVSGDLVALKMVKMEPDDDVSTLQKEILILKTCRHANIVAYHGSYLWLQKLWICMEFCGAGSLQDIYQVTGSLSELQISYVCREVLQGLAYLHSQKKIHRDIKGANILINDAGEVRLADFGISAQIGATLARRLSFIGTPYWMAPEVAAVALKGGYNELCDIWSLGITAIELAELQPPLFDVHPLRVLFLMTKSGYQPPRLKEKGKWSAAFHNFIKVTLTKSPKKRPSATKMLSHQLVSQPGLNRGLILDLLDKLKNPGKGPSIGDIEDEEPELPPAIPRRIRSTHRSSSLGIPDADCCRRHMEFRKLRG
Nature of the test: HPK1 Enzymatic Assay (ADP-Glo). Particulars: enzyme inhibition; MBP substrate, ATP 20 μM mixture. As to the method:
The compound was dissolved in 100% DMSO at the concentration of 10 mM. The HPK1 protein was purchased from Signal Chem (M23-11G-10). 2.5 μL per well of 2× HPK1 protein was added to assay plate containing the test compound, centrifuged at 1500 rpm for 1 minute, and then incubated at 25° C. for 60 minutes. MBP protein was purchased from Signal Chem (M42-51N) and ATP was purchased from Promega (V9102). The two were added 2.5 μL per well mixture of 2× MBP (0.2 ug/ul) and ATP (20 μM), centrifuged at 1500 rpm for 1 minute, then incubated at 25° C. for 60 minutes. Then added 5 μL of ADP-Glo from Promega (V9102) to the assay plate and depleted the unconsumed ATP for 60 minutes. Then centrifuged at 1500 rpm for 1 minute and incubated at 25° C. for 60 minutes. Finally, 10 μL of the kinase assay reagent from Promega (V9102) was added to the assay plate to convert ADP to ATP, centrifuged at 1500 rpm for 1 minute, incubate at 25° C. for 40 minutes. After 40 minutes incubation, the fluorescence was determined. Based on the results, the IC50 value of the compound was calculated.
In general terms: ADP-Glo turns the ADP formed in a reaction into a luminescent signal.

The target in the next test is T3, Aurora A (Homo sapiens, UniProt O14965).
T3 construct: purchased Carna 05-101
T3 sequence (O14965 1-403): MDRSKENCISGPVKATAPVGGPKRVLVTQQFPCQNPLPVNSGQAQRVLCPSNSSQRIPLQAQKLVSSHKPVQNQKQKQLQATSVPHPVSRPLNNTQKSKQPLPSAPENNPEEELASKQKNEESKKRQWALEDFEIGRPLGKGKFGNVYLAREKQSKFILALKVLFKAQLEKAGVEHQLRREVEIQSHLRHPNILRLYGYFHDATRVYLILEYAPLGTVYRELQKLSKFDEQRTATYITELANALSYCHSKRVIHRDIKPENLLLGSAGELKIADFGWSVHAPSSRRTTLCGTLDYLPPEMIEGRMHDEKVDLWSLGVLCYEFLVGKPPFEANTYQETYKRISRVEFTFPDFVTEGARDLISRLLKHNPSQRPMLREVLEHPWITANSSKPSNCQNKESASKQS
The test can be described thus: Aurora A Enzymatic Assay. The following applies: enzyme inhibition; peptide 21 3 μM, ATP 14.58 μM. As for the experimental part: The compound was dissolved in 100% DMSO at the concentration of 10 mM. The Aurora A protein was purchased from Carna (05-101). 10 μL per well of 2.5× Aurora A protein was added to assay plate containing the test compound, centrifuged at 1000 rpm for 1 minute, and then incubated at 25° C. for 10 minutes. Peptide 21 was purchased from GL Biochem (116370) and ATP was purchased from Promega (V9102). The two were added 15 μL per well mixture of 1.67× peptide 21 (final conc. is 3 μM) and ATP (final conc. is 14.58 μM), centrifuged at 1000 rpm for 1 minute, then incubated at 25° C. for 40 minutes. Then added 30 μL of stop buffer (100 mM HEPES pH7.5, 0.015% Brij-35, 0.2% Coating Reagent 3, 50 mM EDTA) to the assay plate and centrifuged at 1000 rpm for 1 minute. the product was determined. Based on the results, the IC50 value of the compound was calculated.

Some results are limits rather than exact numbers.

Take `O=C1NC2(CCNC2)CN1c1cccc(-c2cnc3[nH]cc(C4CC4)c3c2Cl)c1` (stereo not drawn) [Compound 11, 3-(3-(4-chloro-3-cyclopropyl-1H-pyrrolo[2,3-b]pyridin-5-yl)phenyl)-1,3,7-triazaspiro[4.4]nonan-2-one]: the IC50 was found to be 22.3 nM against FLT3-ITD, 15.7 nM at HPK1 and 34.3 nM at Aurora A.
In the same order, the values of `CCc1c[nH]c2ncc(-c3cccc(N4CCCNC4=O)c3)c(Cl)c12` [Compound 9] are 0.8 nM, 2 nM and 172 nM.
In the same order, the values of `CCc1c[nH]c2ncc(-c3cccc(-n4cn[nH]c4=O)c3)c(Cl)c12` [Compound 1, 4-(3-(4-chloro-3-ethyl-1H-pyrrolo[2,3-b]pyridin-5-yl)phenyl)-2,4-dihydro-3H-1,2,4-triazol-3-one] are 37.8 nM, 20.6 nM and 35.8 nM.
On the same counts, the results for `CCc1c[nH]c2ncc(-c3cccc(N4CCNC4=O)c3)c(Cl)c12` [Compound 3] are 22.5 nM, 25.7 nM and 13.3 nM.
Consider `O=c1[nH]ncn1-c1cccc(-c2cnc3[nH]cc(C4CC4)c3c2Cl)c1` [Compound 2, 4-(3-(4-chloro-3-cyclopropyl-1H-pyrrolo[2,3-b]pyridin-5-yl)phenyl)-2,4-dihydro-3H-1,2,4-triazol-3-one], for which the IC50 at FLT3-ITD turned out to be 23.7 nM; on HPK1, 18.2 nM; against Aurora A, 53.6 nM.
For `Cc1sc(N2CCCNC2=O)nc1-c1cnc2[nH]cc(C3CC3)c2c1Cl` [Compound 7, 1-(4-(4-chloro-3-cyclopropyl-1H-pyrrolo[2,3-b]pyridin-5-yl)-5-methylthiazol-2-yl)tetrahydropyrimidin-2(1H)-one], the IC50 against FLT3-ITD came out at 4.2 nM; on HPK1 it was 126 nM; on Aurora A, 93.7 nM.
On the same counts, the results for `O=C1NCCCN1c1cccc(-c2cnc3[nH]cc(C4CC4)c3c2Cl)n1` [Compound 8, 1-(6-(4-chloro-3-cyclopropyl-1H-pyrrolo[2,3-b]pyridin-5-yl)pyridin-2-yl)tetrahydropyrimidin-2(1H)-one] are 6 nM, 2.4 nM and 7.8 nM.
In the same order, the values of `CS(=O)(=O)c1ccc(-c2cnc3[nH]cc(C4CC4)c3c2Cl)cc1N1CCCNC1=O` [Compound 14, 1-(5-(4-chloro-3-cyclopropyl-1H-pyrrolo[2,3-b]pyridin-5-yl)-2-(methylsulfonyl)phenyl)tetrahydropyrimidin-2(1H)-one] are 37.4 nM, 151 nM and 7.1 nM.
On the same counts, the results for `CCN(C)C(=O)c1c[nH]c2ncc(-c3cccc(N4CCCNC4=O)c3)c(Cl)c12` [Compound 12, 4-Chloro-N-ethyl-N-methyl-5-(3-(2-oxotetrahydropyrimidin-1 (2H)-yl)phenyl)-1H-pyrrolo[2,3-b]pyridine-3-carboxamide] are greater than 990 nM, greater than 1000 nM and greater than 1000 nM.
Regarding `O=C1NC2(CCNC2)C(=O)N1c1cccc(-c2cnc3[nH]cc(C4CC4)c3c2Cl)c1` (stereo not drawn) [Compound 10, 3-(3-(4-chloro-3-cyclopropyl-1H-pyrrolo[2,3-b]pyridin-5-yl)phenyl)-1,3,7-triazaspiro[4.4]nonane-2,4-dione], the IC50 amounted to 11.6 nM at FLT3-ITD, 14.4 nM on HPK1 and 27.4 nM against Aurora A.
On the same counts, the results for `O=C1NCCN1c1cccc(-c2cnc3[nH]cc(C4CC4)c3c2Cl)n1` [Compound 6, 1-(6-(4-chloro-3-cyclopropyl-1H-pyrrolo[2,3-b]pyridin-5-yl)pyridin-2-yl) imidazolidin-2-one] are 6.1 nM, 14.3 nM and 9.5 nM.
In the same order, the values of `O=C1NCCN1c1cccc(-c2cnc3[nH]cc(C4CC4)c3c2Cl)c1` [Compound 4] are 14.6 nM, 27.6 nM and 22.9 nM.
As to `N#Cc1cc(-c2cnc3[nH]cc(C4CC4)c3c2Cl)cc(N2CCCNC2=O)c1` [Compound 13, 3-(4-chloro-3-cyclopropyl-1H-pyrrolo[2,3-b]pyridin-5-yl)-5-(2-oxotetrahydropyrimidin-1(2H)-yl)benzonitrile], the IC50 came out at 93.6 nM against FLT3-ITD, 827 nM at HPK1 and 78.9 nM against Aurora A.
In the same order, the values of `O=C1NCCCN1c1nc(-c2cnc3[nH]cc(C4CC4)c3c2Cl)cs1` [Compound 5] are 2.2 nM, 18.9 nM and 3.1 nM.

What is called IC50 is the concentration that inhibits the measured activity by half.

These data come from patent US20260265247A1, “MULTI-KINASE INHIBITORS, COMPOSITIONS THEREOF, AND METHODS OF USING THE SAME” (BIOFRONT LTD, priority 2022, published 2026).
